{"source": "ChEMBL document CHEMBL1129915", "about": "“A novel RGD containing dodecapeptidomimetic which exhibits selective binding to the v3 receptor” (Bioorg Med Chem Lett, 1997)", "assay_type_in_all_cases": "protein-complex assay", "key": {"[1]": {"molecular_target": "Fibronectin receptor (Integrin alpha-5/beta-1 and alpha-V/beta-3) (Homo sapiens) (UniProt P05106+P05556+P06756+P08648)", "sequence (P05106 whole entry, looked up)": "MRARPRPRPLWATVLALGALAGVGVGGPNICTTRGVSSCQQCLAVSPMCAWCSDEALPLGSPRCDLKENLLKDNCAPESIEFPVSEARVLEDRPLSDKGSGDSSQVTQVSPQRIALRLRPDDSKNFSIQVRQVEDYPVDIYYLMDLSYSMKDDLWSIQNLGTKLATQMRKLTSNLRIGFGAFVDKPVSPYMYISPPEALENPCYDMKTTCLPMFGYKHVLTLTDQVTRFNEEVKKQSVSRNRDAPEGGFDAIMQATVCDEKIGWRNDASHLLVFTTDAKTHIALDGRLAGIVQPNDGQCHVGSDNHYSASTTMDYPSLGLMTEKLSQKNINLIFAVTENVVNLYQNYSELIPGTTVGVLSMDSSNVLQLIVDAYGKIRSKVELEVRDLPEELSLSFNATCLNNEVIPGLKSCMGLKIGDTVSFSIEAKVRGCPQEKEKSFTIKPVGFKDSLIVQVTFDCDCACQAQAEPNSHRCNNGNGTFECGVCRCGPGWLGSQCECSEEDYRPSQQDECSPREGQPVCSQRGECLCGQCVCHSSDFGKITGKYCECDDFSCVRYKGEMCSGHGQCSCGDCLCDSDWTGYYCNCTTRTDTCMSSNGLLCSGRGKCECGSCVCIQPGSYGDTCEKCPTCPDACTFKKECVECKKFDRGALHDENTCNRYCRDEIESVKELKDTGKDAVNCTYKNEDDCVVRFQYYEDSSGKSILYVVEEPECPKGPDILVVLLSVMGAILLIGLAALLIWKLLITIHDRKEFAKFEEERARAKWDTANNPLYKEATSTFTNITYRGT", "sequence (P05556 whole entry, looked up)": "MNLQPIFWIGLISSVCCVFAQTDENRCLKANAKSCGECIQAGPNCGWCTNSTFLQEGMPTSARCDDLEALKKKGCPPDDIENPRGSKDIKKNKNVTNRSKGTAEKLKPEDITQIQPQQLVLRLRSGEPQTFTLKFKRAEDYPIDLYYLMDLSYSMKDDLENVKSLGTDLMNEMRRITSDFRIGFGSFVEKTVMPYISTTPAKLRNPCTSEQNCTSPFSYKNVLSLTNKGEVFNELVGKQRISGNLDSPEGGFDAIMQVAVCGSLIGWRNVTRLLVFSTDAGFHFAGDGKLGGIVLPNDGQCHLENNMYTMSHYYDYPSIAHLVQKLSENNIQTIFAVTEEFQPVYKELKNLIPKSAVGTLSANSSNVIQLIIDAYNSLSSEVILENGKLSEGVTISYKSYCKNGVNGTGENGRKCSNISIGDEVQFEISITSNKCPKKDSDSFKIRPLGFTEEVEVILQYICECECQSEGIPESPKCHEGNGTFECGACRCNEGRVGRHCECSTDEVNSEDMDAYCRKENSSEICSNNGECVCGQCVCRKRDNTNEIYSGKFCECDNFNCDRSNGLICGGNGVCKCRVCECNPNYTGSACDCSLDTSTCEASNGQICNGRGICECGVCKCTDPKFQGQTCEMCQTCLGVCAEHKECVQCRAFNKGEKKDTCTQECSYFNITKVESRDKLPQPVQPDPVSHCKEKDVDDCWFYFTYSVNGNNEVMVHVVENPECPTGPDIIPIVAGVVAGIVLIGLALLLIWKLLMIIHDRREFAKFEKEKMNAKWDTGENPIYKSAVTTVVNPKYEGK", "sequence (P06756 whole entry, looked up)": "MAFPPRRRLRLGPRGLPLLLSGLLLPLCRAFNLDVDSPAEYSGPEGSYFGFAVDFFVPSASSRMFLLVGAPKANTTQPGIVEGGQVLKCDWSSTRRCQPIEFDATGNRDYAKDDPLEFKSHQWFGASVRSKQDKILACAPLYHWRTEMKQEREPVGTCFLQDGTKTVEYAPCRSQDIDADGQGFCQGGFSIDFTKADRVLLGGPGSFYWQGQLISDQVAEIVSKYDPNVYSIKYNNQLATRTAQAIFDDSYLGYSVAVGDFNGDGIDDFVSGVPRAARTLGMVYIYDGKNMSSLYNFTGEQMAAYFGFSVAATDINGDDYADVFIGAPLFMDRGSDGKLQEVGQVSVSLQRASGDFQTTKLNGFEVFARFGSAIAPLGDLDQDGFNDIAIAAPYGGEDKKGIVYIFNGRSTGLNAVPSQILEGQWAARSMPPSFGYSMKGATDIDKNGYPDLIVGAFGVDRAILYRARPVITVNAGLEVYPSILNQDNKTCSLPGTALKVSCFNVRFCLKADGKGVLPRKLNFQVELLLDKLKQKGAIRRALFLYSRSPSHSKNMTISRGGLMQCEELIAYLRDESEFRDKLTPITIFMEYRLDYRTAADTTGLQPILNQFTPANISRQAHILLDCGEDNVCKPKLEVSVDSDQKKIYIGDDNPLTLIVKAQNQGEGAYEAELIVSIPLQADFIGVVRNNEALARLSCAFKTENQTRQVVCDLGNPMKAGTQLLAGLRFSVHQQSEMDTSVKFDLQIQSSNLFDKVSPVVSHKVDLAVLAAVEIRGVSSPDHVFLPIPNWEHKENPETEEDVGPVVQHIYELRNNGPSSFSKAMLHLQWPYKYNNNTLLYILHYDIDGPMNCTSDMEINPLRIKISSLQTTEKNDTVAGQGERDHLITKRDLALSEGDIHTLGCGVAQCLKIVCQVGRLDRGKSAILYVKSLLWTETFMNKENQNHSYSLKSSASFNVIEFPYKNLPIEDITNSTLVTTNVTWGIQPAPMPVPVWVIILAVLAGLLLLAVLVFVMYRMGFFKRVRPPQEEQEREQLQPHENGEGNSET", "sequence (P08648 whole entry, looked up)": "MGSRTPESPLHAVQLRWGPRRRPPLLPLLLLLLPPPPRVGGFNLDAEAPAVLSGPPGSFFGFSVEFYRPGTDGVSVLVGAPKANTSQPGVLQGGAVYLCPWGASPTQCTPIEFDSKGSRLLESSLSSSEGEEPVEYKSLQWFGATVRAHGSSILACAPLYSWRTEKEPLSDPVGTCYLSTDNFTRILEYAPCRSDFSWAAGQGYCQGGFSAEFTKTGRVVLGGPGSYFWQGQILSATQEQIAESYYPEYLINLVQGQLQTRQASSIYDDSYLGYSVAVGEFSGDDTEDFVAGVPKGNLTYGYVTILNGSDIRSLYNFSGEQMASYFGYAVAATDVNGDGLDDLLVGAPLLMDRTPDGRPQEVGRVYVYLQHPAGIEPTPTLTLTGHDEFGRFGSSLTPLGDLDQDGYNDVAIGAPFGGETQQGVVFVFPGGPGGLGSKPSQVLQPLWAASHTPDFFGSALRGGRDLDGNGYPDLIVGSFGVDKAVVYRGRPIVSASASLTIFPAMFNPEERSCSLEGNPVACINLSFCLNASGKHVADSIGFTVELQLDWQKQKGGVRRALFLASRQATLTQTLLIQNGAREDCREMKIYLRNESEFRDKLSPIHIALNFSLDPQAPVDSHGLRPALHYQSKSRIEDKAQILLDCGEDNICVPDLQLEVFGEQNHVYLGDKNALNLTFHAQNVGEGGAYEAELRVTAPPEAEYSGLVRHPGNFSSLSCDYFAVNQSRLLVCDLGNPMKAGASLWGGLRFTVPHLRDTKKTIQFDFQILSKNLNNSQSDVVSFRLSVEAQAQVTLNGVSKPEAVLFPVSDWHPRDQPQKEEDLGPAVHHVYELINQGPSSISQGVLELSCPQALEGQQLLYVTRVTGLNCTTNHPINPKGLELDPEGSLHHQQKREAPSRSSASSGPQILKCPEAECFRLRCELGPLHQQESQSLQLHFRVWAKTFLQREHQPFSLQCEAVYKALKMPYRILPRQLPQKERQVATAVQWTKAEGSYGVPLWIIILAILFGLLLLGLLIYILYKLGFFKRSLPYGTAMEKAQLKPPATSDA", "test": "Binding to Fibronectin receptor on vitronectin coated microtiter plates"}, "[2]": {"molecular_target": "Integrin alpha-V/beta-5 (Homo sapiens) (UniProt P06756+P18084)", "test": "Binding to Vitronectin receptor (alphaV-beta5) coated microtiter plates"}, "[3]": {"molecular_target": "Integrin alpha-V/beta-3 (Homo sapiens) (UniProt P05106+P06756)", "test": "Binding to Vitronectin receptor (alphaV-beta3) of PMA stimulated human-derived B lymphocyte on vitronectin coated microtiter plates"}, "[4]": {"molecular_target": "Integrin alpha-IIb/beta-3 (Homo sapiens) (UniProt P05106+P08514)", "test": "Binding to IIb/IIIa on vitronectin coated microtiter plates in ELISA"}}, "data": [{"smiles": "NCC(=O)N[C@@H](CCCN=C(N)N)C(=O)NCC(=O)N[C@@H](CC(=O)O)C(=O)N[C@@H](CO)C(=O)N1CCC[C@H]1C(=O)O", "values": [{"measurement": "Binding activity", "setting": "[1]", "result": 0.02, "unit": "µM"}, {"measurement": "Binding activity", "setting": "[2]", "result": 0.582, "unit": "µM"}, {"measurement": "Binding activity", "setting": "[3]", "result": 50, "unit": "µM"}, {"measurement": "Binding activity", "setting": "[4]", "result": 0.8, "unit": "µM"}]}]}
